One block for each molecule: values may come before it.
Tests used:
Histone deacetylase = test: Inhibition of HDAC in human HeLa cell extract using Boc-Lys (acetyl)-AMC as substrate incubated for 10 mins prior to substrate addition measured after 30 mins by fluorescence assay; assay type: protein assay
[1] = Antiproliferative activity against human U266 cells after 48 hrs by MTT assay; assay type: functional, cell-based; conditions: U-266, 48 h
A549 = test: Antiproliferative activity against human A549 cells after 48 hrs by MTT assay; assay type: functional, cell-based; conditions: A549, 48 h
[2] = Antitumor activity against human U937 cells xenografted in athymic nude mouse at 120 mg/kg/day, po after 16 days relative to control; assay type: functional, U-937
Histone deacetylase 2 = Histone deacetylase 2 (Homo sapiens, UniProt Q92769); test: Inhibition of HDAC2 (unknown origin)
[3] = Antiproliferative activity against human U937 cells after 48 hrs by MTT assay; assay type: functional, cell-based; conditions: U-937, 48 h
Mus musculus [4] = test: Toxicity in athymic nude mouse xenografted with human U937 cells assessed as weight loss at 120 mg/kg/day, po after 16 days; assay type: organism-based, U-937; set-up: route oral; conditions: in vivo, 384 h
[5] = Antiproliferative activity against human HL60 cells after 48 hrs by MTT assay; assay type: functional, cell-based; conditions: HL-60, 48 h
MCF7 = test: Antiproliferative activity against human MCF7 cells after 48 hrs by MTT assay; assay type: functional, cell-based; conditions: MCF7, 48 h
U-937 [6] = test: Induction of apoptosis in human U937 cells assessed as apoptotic cells at 1.5 uM after 24 hrs by annexin-V/propidium iodide staining-based flow cytometry; assay type: functional
[7] = Antiproliferative activity against human PC3 cells after 48 hrs by MTT assay; assay type: functional, cell-based; conditions: PC-3, 48 h
Histone deacetylase 3 = Histone deacetylase 3 (Homo sapiens, UniProt O15379); test: Inhibition of HDAC3 (unknown origin)
[8] = Antitumor activity against human U937 cells xenografted in athymic nude mouse assessed as tumor growth inhibition at 120 mg/kg/day, po after 16 days; assay type: functional; conditions: U-937, 384 h, read-out: TGI
[9] = Antiproliferative activity against human KG1 cells after 48 hrs by MTT assay; assay type: functional, cell-based; conditions: KG-1, 48 h
MDA-MB-231 = test: Antiproliferative activity against human MDA-MB-231 cells after 48 hrs by MTT assay; assay type: functional, cell-based; conditions: MDA-MB-231, 48 h
[10] = Antiproliferative activity against human HCT116 cells after 48 hrs by MTT assay; assay type: functional, cell-based; conditions: HCT-116, 48 h
HEL = test: Antiproliferative activity against human HEL cells after 48 hrs by MTT assay; assay type: functional, cell-based
U-937 [11] = test: Induction of apoptosis in human U937 cells assessed as viable cells at 1.5 uM after 24 hrs by annexin-V/propidium iodide staining-based flow cytometry (reference value: 92.47%); assay type: functional
Mus musculus [12] = test: Toxicity in athymic nude mouse xenografted with human U937 cells assessed as toxic sign in liver at 120 mg/kg/day, po after 16 days; assay type: organism-based, U-937; set-up: route oral; conditions: in vivo, 384 h
U-937 [13] = test: Induction of apoptosis in human U937 cells assessed as dead cells at 1.5 uM after 24 hrs by annexin-V/propidium iodide staining-based flow cytometry (reference value: 0.95%); assay type: functional
U-937 [14] = test: Induction of apoptosis in human U937 cells assessed as late apoptotic cells at 1.5 uM after 24 hrs by annexin-V/propidium iodide staining-based flow cytometry (reference value: 2.77%); assay type: functional
[15] = target: T1, Protein deacetylase HDAC6 (Homo sapiens, UniProt Q9UBN7); test: Inhibition of HDAC6 (unknown origin)
T1 sequence (Q9UBN7 whole entry): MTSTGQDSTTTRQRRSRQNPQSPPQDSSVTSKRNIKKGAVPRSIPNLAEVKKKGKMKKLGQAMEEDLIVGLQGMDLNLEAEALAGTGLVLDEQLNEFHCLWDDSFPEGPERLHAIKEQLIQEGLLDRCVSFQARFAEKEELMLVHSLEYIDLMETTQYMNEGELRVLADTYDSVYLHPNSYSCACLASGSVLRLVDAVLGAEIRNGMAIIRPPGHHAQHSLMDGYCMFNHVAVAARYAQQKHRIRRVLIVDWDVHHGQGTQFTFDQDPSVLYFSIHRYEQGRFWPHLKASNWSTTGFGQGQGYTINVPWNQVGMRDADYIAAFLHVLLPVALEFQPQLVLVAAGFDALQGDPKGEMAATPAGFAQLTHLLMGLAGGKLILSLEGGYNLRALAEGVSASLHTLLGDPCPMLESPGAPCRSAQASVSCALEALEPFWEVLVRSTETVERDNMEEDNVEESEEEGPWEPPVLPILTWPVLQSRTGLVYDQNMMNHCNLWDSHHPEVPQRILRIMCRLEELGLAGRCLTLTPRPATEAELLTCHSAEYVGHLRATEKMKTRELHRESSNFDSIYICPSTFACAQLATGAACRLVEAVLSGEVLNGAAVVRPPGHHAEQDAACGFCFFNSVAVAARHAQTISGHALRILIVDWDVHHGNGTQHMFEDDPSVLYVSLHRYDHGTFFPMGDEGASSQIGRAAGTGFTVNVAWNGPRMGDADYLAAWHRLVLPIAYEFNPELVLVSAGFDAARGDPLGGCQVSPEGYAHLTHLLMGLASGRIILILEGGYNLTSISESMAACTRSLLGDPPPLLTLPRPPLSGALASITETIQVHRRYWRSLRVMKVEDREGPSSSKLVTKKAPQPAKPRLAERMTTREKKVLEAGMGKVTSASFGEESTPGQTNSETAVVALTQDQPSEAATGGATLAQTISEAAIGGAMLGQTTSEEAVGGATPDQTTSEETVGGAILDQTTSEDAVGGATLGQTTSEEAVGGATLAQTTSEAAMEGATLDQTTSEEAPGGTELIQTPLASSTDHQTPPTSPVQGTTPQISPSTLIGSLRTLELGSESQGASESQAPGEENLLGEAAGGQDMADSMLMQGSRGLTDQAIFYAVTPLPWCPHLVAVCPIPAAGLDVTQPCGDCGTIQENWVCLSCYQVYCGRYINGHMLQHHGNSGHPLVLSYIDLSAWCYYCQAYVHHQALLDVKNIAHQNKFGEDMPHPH

U-937 [16] = test: Induction of apoptosis in human U937 cells assessed as early apoptotic cells at 1.5 uM after 24 hrs by annexin-V/propidium iodide staining-based flow cytometry (reference value: 3.81%); assay type: functional
Mus musculus [17] = test: Toxicity in athymic nude mouse xenografted with human U937 cells assessed as toxic sign in spleen at 120 mg/kg/day, po after 16 days; assay type: organism-based, U-937; set-up: route oral; conditions: in vivo, 384 h
K562 = test: Antiproliferative activity against human K562 cells after 48 hrs by MTT assay; assay type: functional, cell-based; conditions: K562, 48 h
Histone deacetylase 1 = Histone deacetylase 1 (Homo sapiens, UniProt Q13547); test: Inhibition of HDAC1 (unknown origin)
Histone deacetylase 4 = Histone deacetylase 4 (Homo sapiens, UniProt P56524); test: Inhibition of HDAC4 (unknown origin)
Histone deacetylase 8 = target: T2, Histone deacetylase 8 (Homo sapiens, UniProt Q9BY41); test: Inhibition of HDAC8 (unknown origin)
T2 sequence (Q9BY41 whole entry): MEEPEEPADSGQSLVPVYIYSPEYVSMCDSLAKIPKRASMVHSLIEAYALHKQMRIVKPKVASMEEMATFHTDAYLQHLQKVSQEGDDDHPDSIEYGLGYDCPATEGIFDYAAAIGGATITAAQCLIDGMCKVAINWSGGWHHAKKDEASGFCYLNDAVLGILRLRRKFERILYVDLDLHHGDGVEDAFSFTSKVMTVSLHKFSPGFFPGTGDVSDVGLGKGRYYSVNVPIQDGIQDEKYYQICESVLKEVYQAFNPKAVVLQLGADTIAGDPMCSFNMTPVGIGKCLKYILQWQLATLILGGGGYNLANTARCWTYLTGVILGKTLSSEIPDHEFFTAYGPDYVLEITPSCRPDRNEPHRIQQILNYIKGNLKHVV

Histone deacetylase 11 = target: T3, Histone deacetylase 11 (Homo sapiens, UniProt Q96DB2); test: Inhibition of HDAC11 (unknown origin)
T3 sequence (Q96DB2 whole entry): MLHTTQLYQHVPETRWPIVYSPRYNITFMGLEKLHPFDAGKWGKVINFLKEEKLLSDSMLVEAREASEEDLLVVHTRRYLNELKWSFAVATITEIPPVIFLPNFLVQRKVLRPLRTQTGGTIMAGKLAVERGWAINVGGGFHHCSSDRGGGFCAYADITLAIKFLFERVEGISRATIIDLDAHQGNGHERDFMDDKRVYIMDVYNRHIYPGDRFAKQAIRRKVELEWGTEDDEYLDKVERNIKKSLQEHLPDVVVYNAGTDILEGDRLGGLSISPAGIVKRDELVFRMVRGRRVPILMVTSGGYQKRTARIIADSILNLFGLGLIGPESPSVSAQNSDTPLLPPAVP

Sequence of Histone deacetylase 3 (O15379 whole entry): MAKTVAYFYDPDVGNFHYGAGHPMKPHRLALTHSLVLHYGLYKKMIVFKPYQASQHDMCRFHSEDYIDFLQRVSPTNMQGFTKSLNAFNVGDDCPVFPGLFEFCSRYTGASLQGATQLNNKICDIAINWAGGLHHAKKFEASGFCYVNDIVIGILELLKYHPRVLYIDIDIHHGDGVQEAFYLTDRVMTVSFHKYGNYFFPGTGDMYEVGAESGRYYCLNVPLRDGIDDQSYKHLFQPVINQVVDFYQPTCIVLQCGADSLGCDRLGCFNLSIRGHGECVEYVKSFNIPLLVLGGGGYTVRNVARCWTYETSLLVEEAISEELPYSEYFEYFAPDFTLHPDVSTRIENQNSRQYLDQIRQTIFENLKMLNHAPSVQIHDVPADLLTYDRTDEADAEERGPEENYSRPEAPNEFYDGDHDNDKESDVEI
Sequence of Histone deacetylase 1 (Q13547 whole entry): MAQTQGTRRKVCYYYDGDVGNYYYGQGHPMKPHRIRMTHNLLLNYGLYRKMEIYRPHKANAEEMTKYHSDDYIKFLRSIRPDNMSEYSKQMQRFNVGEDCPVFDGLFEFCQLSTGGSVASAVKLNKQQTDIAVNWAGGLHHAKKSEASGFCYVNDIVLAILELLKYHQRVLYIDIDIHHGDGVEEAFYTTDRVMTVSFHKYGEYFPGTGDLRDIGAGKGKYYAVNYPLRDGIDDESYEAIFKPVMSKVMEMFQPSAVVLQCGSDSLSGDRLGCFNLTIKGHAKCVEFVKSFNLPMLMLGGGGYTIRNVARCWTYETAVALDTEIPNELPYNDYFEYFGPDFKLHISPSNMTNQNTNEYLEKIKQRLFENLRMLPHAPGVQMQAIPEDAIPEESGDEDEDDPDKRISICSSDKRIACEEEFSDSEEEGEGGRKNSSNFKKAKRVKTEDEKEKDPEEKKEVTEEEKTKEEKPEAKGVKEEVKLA
Sequence of Histone deacetylase 2 (Q92769 whole entry): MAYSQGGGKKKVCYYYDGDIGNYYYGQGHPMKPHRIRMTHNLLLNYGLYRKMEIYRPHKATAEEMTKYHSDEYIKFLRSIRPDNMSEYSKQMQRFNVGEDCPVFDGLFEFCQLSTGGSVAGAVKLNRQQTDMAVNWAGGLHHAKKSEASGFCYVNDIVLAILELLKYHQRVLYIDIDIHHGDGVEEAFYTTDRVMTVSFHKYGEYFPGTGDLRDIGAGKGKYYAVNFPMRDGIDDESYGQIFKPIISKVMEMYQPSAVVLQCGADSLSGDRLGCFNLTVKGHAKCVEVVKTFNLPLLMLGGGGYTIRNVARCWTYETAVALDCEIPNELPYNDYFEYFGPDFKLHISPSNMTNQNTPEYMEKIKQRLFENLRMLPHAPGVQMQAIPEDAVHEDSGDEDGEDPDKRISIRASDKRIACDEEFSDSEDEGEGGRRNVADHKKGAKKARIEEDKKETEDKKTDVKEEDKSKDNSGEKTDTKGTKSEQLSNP
Sequence of Histone deacetylase 4 (P56524 whole entry): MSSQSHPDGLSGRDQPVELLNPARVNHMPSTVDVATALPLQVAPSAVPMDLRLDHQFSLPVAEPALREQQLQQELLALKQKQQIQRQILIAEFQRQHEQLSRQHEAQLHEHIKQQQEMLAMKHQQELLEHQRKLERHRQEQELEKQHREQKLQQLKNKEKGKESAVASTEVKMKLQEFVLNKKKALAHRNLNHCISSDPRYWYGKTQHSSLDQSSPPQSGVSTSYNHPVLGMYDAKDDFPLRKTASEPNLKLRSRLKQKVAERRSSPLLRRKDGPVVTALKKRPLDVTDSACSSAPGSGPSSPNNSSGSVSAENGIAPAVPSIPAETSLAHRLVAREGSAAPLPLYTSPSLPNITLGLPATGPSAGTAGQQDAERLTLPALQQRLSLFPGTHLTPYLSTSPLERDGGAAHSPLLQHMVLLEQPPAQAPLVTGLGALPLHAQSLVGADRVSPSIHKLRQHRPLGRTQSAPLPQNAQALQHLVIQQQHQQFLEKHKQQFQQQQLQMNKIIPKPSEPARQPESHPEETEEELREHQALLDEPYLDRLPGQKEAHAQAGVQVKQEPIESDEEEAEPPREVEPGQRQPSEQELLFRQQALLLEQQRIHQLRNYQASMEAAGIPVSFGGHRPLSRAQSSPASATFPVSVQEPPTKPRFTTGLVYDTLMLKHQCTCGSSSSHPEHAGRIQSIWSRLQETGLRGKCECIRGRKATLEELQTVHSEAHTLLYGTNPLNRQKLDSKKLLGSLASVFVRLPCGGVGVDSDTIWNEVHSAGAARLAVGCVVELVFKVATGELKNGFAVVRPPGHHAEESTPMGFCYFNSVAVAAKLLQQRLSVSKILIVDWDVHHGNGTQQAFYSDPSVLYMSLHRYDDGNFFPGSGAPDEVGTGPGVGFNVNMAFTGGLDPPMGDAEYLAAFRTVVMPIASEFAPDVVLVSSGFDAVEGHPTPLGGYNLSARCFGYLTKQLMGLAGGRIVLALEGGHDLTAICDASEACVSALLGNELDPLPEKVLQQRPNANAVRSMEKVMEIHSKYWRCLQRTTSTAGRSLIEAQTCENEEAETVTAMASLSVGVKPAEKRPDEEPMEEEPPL

Structure (SMILES): O=C(/C=C/c1cccc(OC[C@H](Cc2c[nH]c3ccccc23)NC(=O)c2ccc(Cl)cc2Cl)c1)NO
IC50 (Histone deacetylase): 258.9 nM | IC50 [1]: 2500 nM

Structure (SMILES): O=C(/C=C/c1cccc(OC[C@H](Cc2c[nH]c3ccccc23)NC(=O)c2ccc(Cl)cc2)c1)NO
IC50 [1]: 1740 nM

Structure (SMILES): O=C(/C=C/c1cccc(OC[C@H](Cc2c[nH]c3ccccc23)NC(=O)c2cccc(Cl)c2)c1)NO
IC50 (Histone deacetylase): 357.9 nM | IC50 [1]: 3080 nM

Structure (SMILES): O=C(/C=C/c1cccc(OC[C@H](Cc2c[nH]c3ccccc23)NC(=O)c2cc(Cl)cc(Cl)c2)c1)NO
IC50 (Histone deacetylase): 779 nM | IC50 [1]: 3030 nM

Structure (SMILES): O=C(/C=C/c1cccc(OC[C@H](Cc2c[nH]c3ccccc23)NC(=O)c2ccccc2Cl)c1)NO
IC50 (Histone deacetylase): 81.9 nM | IC50 [1]: 740 nM

Structure (SMILES): O=C(/C=C/c1cccc(OC[C@H](Cc2c[nH]c3ccccc23)NC(=O)Cc2ccccc2)c1)NO
IC50 (Histone deacetylase): 447.7 nM | IC50 [1]: 6570 nM

Structure (SMILES): O=C(/C=C/c1cccc(OC[C@H](Cc2c[nH]c3ccccc23)NC(=O)CCc2ccccc2)c1)NO
IC50 (Histone deacetylase): 464.5 nM | IC50 [1]: 6170 nM

Structure (SMILES): COc1ccc(C(=O)N[C@H](COc2cccc(/C=C/C(=O)NO)c2)Cc2c[nH]c3ccccc23)cc1
IC50 (Histone deacetylase): 191.2 nM | IC50 (A549): 4500 nM | T/C [2]: 56.4% | IC50 (Histone deacetylase 2): 865 nM | IC50 [1]: 410 nM | IC50 [3]: 360 nM | Activity (Mus musculus [4]): Non-toxic | IC50 [5]: 3700 nM | IC50 (MCF7): 2490 nM | Activity (U-937 [6]): 35.53% | IC50 [7]: 3880 nM | IC50 (Histone deacetylase 3): 224 nM | inhibition in vivo at 120 mg/kg/day [8]: 42.7% | IC50 [9]: 1080 nM | IC50 (MDA-MB-231): 970 nM | IC50 [10]: 2310 nM | IC50 (HEL): 380 nM | viability at 1.5 µM (U-937 [11]; Homo sapiens, U-937, 24 h, read-out: Activity): 57.5% | Activity (Mus musculus [12]): Non-toxic | Activity (U-937 [13]): 6.92% | Activity (U-937 [14]): 23.99% | IC50 [15]: 93.8 nM | Activity (U-937 [16]): 11.54% | Activity (Mus musculus [17]): Non-toxic | IC50 (K562): 3460 nM | IC50 (Histone deacetylase 1): 219 nM

Structure (SMILES): O=C(CCCCCCC(=O)Nc1ccccc1)NO [VORINOSTAT]
T/C [2]: 71.7% | Activity (U-937 [6]): 21.22% | IC50 [7]: 3570 nM | Activity (U-937 [11]): 72.62% | Activity (U-937 [13]): 6.16% | Activity (U-937 [14]): 14.57% | Activity (U-937 [16]): 6.65%

Structure (SMILES): O=C(/C=C/c1cccc(OC[C@H](Cc2c[nH]c3ccccc23)NC(=O)c2ccc(Br)cc2)c1)NO
IC50 (Histone deacetylase): 692.4 nM | IC50 [1]: 1390 nM

Structure (SMILES): O=C(/C=C/c1cccc(OC[C@H](Cc2c[nH]c3ccccc23)NC(=O)CCCc2ccccc2)c1)NO
IC50 (Histone deacetylase): 498.6 nM | IC50 [1]: 3620 nM

Structure (SMILES): COc1ccccc1C(=O)N[C@H](COc1cccc(/C=C/C(=O)NO)c1)Cc1c[nH]c2ccccc12
IC50 (Histone deacetylase): 38.5 nM | IC50 (Histone deacetylase 2): 64.8 nM | IC50 [1]: 1430 nM | IC50 (Histone deacetylase 4): 440 nM | IC50 (Histone deacetylase 3): 28.7 nM | IC50 (Histone deacetylase 8): 87.4 nM | IC50 [15]: 23.9 nM | IC50 (Histone deacetylase 1): 33.2 nM | IC50 (Histone deacetylase 11): 52.7 nM

Structure (SMILES): COc1cccc(C(=O)N[C@H](COc2cccc(/C=C/C(=O)NO)c2)Cc2c[nH]c3ccccc23)c1
IC50 (Histone deacetylase): 67.4 nM | IC50 [1]: 3090 nM

Second part, led by results:

IC50 (Histone deacetylase): 886.4 nM
Structure (SMILES): CC(C)(C)OC(=O)NCC(=O)N[C@H](COc1cccc(/C=C/C(=O)NO)c1)Cc1c[nH]c2ccccc12
IC50 [1]: 8950 nM

IC50 (Histone deacetylase): 421.4 nM
Structure (SMILES): O=C(/C=C/c1cccc(OC[C@H](Cc2c[nH]c3ccccc23)NC(=O)c2ccccc2)c1)NO
IC50 [1]: 1230 nM

IC50 (Histone deacetylase): 218.7 nM
Structure (SMILES): Cc1ccc(C(=O)N[C@H](COc2cccc(/C=C/C(=O)NO)c2)Cc2c[nH]c3ccccc23)cc1
IC50 [1]: 390 nM

IC50 (Histone deacetylase): 917.4 nM
Structure (SMILES): CC(C)(C)OC(=O)N[C@H](COc1cccc(/C=C/C(=O)NO)c1)Cc1c[nH]c2ccccc12
IC50 [1]: 4180 nM

IC50 (Histone deacetylase): 861.5 nM
Structure (SMILES): CC(NC(=O)OC(C)(C)C)C(=O)N[C@H](COc1cccc(/C=C/C(=O)NO)c1)Cc1c[nH]c2ccccc12 (stereo partly specified)
IC50 [1]: 6560 nM

Source: ChEMBL document CHEMBL3351443, “Development of 3-hydroxycinnamamide-based HDAC inhibitors with potent in vitro and in vivo anti-tumor activity” (Eur J Med Chem, 2015)
